#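 Where inhibition never reached the appropriate level, the endpoint shown equals the highest concentration tested. Otherwise, values were interpolated linearly from a five-concentration, 48-hour dose response in 96-well plates. Here, GI50 denotes the concentration required for 50% inhibition of growth.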 Activity calls are given as the source filed them. Rule as the data show it: active = GI50 up to about 1.1 µM and inactive = higher.
# Tests used:
# Assay in all cases: inhibition of tumour cell growth, NCI panel, 48 h
# [1] = system: K562
# [2] = system: SK-MEL-28
# [3] = system: OVCAR-4
# [4] = system: MCF7
# [5] = system: NCI-H226
# [6] = system: SW-620
# [7] = system: MDA-MB-231
# [8] = system: OVCAR-3
# [9] = system: Malme-3M
# [10] = system: MOLT-4
# [11] = system: HT-29
# [12] = system: SF-268
# [13] = system: OVCAR-8
# [14] = system: MDA-N
# [15] = system: CCRF-CEM
# [16] = system: OVCAR-5
# [17] = system: SNB-19
# [18] = system: SK-MEL-2
# [19] = system: SF-539
# [20] = system: HOP-62
# [21] = system: EKVX
# [22] = system: MDA-MB-435
# [23] = system: A549
# [24] = system: U-251
# [25] = system: HL-60
# [26] = system: PC-3
# [27] = system: SK-MEL-5
# [28] = system: NCI-H23
# [29] = system: T47D
# [30] = system: HCC 2998
# [31] = system: NCI/ADR-RES
# [32] = system: COLO 205
# [33] = system: LOX IMVI
# [34] = system: DU-145
# [35] = system: IGROV-1
# [36] = system: SF-295
# [37] = system: HCT-116
# [38] = system: ACHN
# [39] = system: HOP-92
# [40] = system: KM12
# [41] = system: A498
# [42] = system: 786-0
# [43] = system: M14
# [44] = system: RPMI-8226
# [45] = system: RXF 393
# [46] = system: SN12C
# [47] = system: BT-549
# [48] = system: SNB-75
# [49] = system: NCI-H522
# [50] = system: UO-31
# [51] = system: SK-OV-3
# [52] = system: SR
# [53] = system: UACC-257
# [54] = system: NCI-H460
# [55] = system: CAKI-1
# [56] = system: UACC-62
# [57] = system: HCT-15
# [58] = system: TK-10
structure (smiles),measurement,setting,value
O=C(CN1CCN(Cc2ccccc2)CC1)c1ccc2[nH]c(=O)oc2c1,GI50,[1],> 100 µM (inactive)
same,GI50,[2],> 100 µM (inactive)
same,GI50,[3],> 100 µM (inactive)
same,GI50,[4],> 100 µM (inactive)
same,GI50,[5],> 50.6 µM (inactive)
same,GI50,[6],> 100 µM (inactive)
same,GI50,[7],> 100 µM (inactive)
same,GI50,[8],> 100 µM (inactive)
same,GI50,[9],0.845 µM (active)
same,GI50,[10],> 100 µM (inactive)
same,GI50,[11],> 100 µM (inactive)
same,GI50,[12],> 100 µM (inactive)
same,GI50,[13],> 100 µM (inactive)
same,GI50,[14],> 100 µM (inactive)
same,GI50,[15],> 100 µM (inactive)
same,GI50,[16],> 100 µM (inactive)
same,GI50,[17],> 100 µM (inactive)
same,GI50,[18],> 100 µM (inactive)
same,GI50,[19],> 100 µM (inactive)
same,GI50,[20],> 100 µM (inactive)
same,GI50,[21],> 66.2 µM (inactive)
same,GI50,[22],> 30.5 µM (inactive)
same,GI50,[23],> 100 µM (inactive)
same,GI50,[24],> 88.7 µM (inactive)
same,GI50,[25],> 90.4 µM (inactive)
same,GI50,[26],> 100 µM (inactive)
same,GI50,[27],> 100 µM (inactive)
same,GI50,[28],> 100 µM (inactive)
same,GI50,[29],> 100 µM (inactive)
same,GI50,[30],> 100 µM (inactive)
same,GI50,[31],> 100 µM (inactive)
same,GI50,[32],> 100 µM (inactive)
same,GI50,[33],> 100 µM (inactive)
same,GI50,[34],> 100 µM (inactive)
same,GI50,[35],99.3 µM (inactive)
same,GI50,[36],> 100 µM (inactive)
same,GI50,[37],> 100 µM (inactive)
same,GI50,[38],> 100 µM (inactive)
same,GI50,[39],53.1 µM (inactive)
same,GI50,[40],> 100 µM (inactive)
same,GI50,[41],> 100 µM (inactive)
same,GI50,[42],> 100 µM (inactive)
same,GI50,[43],> 100 µM (inactive)
same,GI50,[44],> 100 µM (inactive)
same,GI50,[45],> 100 µM (inactive)
same,GI50,[46],> 100 µM (inactive)
same,GI50,[47],> 100 µM (inactive)
same,GI50,[48],> 41.3 µM (inactive)
same,GI50,[49],74.5 µM (inactive)
same,GI50,[50],60.7 µM (inactive)
same,GI50,[51],> 100 µM (inactive)
same,GI50,[52],> 67.1 µM (inactive)
same,GI50,[53],> 100 µM (inactive)
same,GI50,[54],> 100 µM (inactive)
same,GI50,[55],> 100 µM (inactive)
same,GI50,[56],> 100 µM (inactive)
same,GI50,[57],> 100 µM
same,GI50,[58],> 100 µM (inactive)
COc1c(O)c(OC)c2oc(-c3ccc(O)c(O)c3)c(OC)c(=O)c2c1O,GI50,[1],18.5 µM (inactive)
same,GI50,[2],18.7 µM (inactive)
same,GI50,[3],55 µM (inactive)
same,GI50,[4],4.1 µM (inactive)
same,GI50,[5],27.4 µM (inactive)
same,GI50,[6],36.1 µM (inactive)
same,GI50,[7],23.1 µM (inactive)
same,GI50,[8],2.85 µM (inactive)
same,GI50,[9],6.24 µM (inactive)
same,GI50,[10],28.4 µM (inactive)
same,GI50,[11],30.7 µM (inactive)
same,GI50,[12],3.52 µM (inactive)
same,GI50,[13],32.1 µM (inactive)
same,GI50,[14],37.3 µM (inactive)
same,GI50,[15],23.9 µM (inactive)
same,GI50,[16],38.8 µM (inactive)
same,GI50,[17],53.8 µM (inactive)
same,GI50,[18],5.42 µM (inactive)
same,GI50,[19],14.6 µM (inactive)
same,GI50,[20],6.98 µM (inactive)
same,GI50,[21],29.6 µM (inactive)
same,GI50,[22],3.13 µM (inactive)
same,GI50,[23],35.6 µM (inactive)
same,GI50,[24],16.9 µM (inactive)
same,GI50,[25],17.7 µM (inactive)
same,GI50,[26],38.9 µM (inactive)
same,GI50,[27],11.8 µM (inactive)
same,GI50,[28],32.7 µM (inactive)
same,GI50,[29],3.28 µM (inactive)
same,GI50,[30],29.3 µM (inactive)
same,GI50,[31],55.1 µM (inactive)
same,GI50,[32],27.1 µM (inactive)
same,GI50,[33],23.9 µM (inactive)
same,GI50,[34],24.2 µM (inactive)
same,GI50,[35],10.4 µM (inactive)
same,GI50,[36],39.3 µM (inactive)
same,GI50,[37],31.2 µM (inactive)
same,GI50,[38],31.4 µM (inactive)
same,GI50,[39],30.5 µM (inactive)
same,GI50,[40],48.3 µM (inactive)
same,GI50,[41],31.6 µM (inactive)
same,GI50,[42],15 µM (inactive)
same,GI50,[43],17.6 µM (inactive)
same,GI50,[44],31.8 µM (inactive)
same,GI50,[46],56.9 µM (inactive)
same,GI50,[47],6.81 µM (inactive)
same,GI50,[48],3.62 µM (inactive)
same,GI50,[49],10.5 µM (inactive)
same,GI50,[50],28.1 µM (inactive)
same,GI50,[51],15.9 µM (inactive)
same,GI50,[52],28.7 µM (inactive)
same,GI50,[53],24 µM (inactive)
same,GI50,[54],35.9 µM (inactive)
same,GI50,[55],26.9 µM (inactive)
same,GI50,[56],7.52 µM (inactive)
same,GI50,[57],11.5 µM
same,GI50,[58],30.5 µM (inactive)

# — ChEMBL document CHEMBL1201862, “PubChem BioAssay data set” (2004)
